Assay results published in US9221832B2, “Heterocyclic amide derivatives as P2X7 receptor antagonists” (ACTELION PHARMACEUTICALS LTD., priority 2011, dated 2015).

Target: human recombinant P2X7 receptor (Homo sapiens (Human), UniProt Q99572)
Experiment: YO-PRO assay: P2X7 receptor antagonistic activity
Assay type: cell-based
Conditions: HEK cells expressing human P2X7
Protocol: The P2X7 receptor antagonistic activity of the compounds of formula (I) is determined in accordance with the following experimental method.
Cell Line Generation and YO-PRO Assay
Cell line generation was performed in general according to established molecular cloning protocols. Specifically, RNA was extracted from human whole blood using the Qiagen RNeasy kit (Qiagen, CH) according to the manufacturer's instructions. Subsequently cDNA was made (Superscript II, Invitrogen AG, CH) and the human P2X7 gene (genbank ref. BC011913) was amplified with the following primers: […] and […]. The amplified sequence was subsequently ligated into a pcDNA3.1 (+) NotI, NheI digested plasmid. […] Following a 24 h exposure to DNA, cells were trypsinized and re-seeded at low density in the presence of 250 μg Geneticin. Geneticin resistant cells were then selected during two consecutive rounds of cloning by serial limiting dilution with visual inspection. Individual clones were screened for P2X7 expression by applying ATP and recording the resultant uptake of YO-PRO1. Specific cell clones were chosen based on RNA and protein expression. HEK cells stably expressing P2X7 were used to screen drugs using the YO-PRO1 assay. Cells were grown to confluency in adherent culture at 37° C. in a humidified 5% CO2 incubator (split 1/5 every 3-4 days with DMEM, 10% FCS, 1% Penicillin/Streptomycin, 250 μg/ml Geneticin). Adherent cells were detached by incubation with Trypsine (1 ml per 165 cm^2 dish) for 2 minutes, then washed off with 10 ml PBS (without Mg^2+ and Ca^2+), and resuspended in DMEM, 10% FCS, 1% Penicillin/Streptomycin, no Geneticin. […] During this time period, four time points were taken. Each time point comprised the average of several measurements made within a few seconds. […] The FLIPR tetra was equipped with Molecular Devices Screen Works system control software to define and run experimental protocols. […] For IC50 measurements the maximum intensity is plotted against the concentration of compound to determine IC50 values.

Sequence of human recombinant P2X7 receptor (Q99572 whole entry): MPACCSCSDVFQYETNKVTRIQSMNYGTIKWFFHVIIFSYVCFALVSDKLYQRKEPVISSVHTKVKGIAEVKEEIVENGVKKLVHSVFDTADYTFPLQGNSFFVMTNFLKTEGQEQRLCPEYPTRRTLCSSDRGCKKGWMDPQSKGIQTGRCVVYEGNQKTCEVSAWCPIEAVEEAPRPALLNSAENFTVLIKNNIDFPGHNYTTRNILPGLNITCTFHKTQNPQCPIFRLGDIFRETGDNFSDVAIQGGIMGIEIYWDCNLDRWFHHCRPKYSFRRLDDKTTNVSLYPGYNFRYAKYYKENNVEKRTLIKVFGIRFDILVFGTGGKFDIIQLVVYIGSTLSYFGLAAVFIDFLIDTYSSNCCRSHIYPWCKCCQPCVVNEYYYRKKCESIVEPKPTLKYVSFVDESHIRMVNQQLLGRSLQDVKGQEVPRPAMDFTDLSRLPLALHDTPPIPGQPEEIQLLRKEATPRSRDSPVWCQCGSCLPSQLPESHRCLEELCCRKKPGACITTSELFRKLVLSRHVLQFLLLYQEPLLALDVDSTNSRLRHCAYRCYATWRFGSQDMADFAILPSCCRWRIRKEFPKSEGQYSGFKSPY

SMILES	IC50
O=C(Cc1cccc(C(F)F)c1Cl)NC1COc2ncccc21 (racemic) [Example 114, rac-2-(2-Chloro-3-difluoromethyl-phenyl)-N-(2,3-dihydro-furo[2,3-b]pyridin-3-yl)-acetamide]	7.6 nM
Cc1cncc2c1C(NC(=O)Cc1cccc(C(F)(F)F)c1Cl)CO2 (racemic) [Example 128, rac-2-(2-Chloro-3-trifluoromethyl-phenyl)-N-(4-methyl-2,3-dihydro-furo[2,3-c]pyridin-3-yl)-acetamide]	5.6 nM
O=C(Cc1cccc(C(F)(F)F)c1Cl)NC1COc2c1ccc[n+]2[O-] (racemic) [Example 129, rac-2-(2-Chloro-3-trifluoromethyl-phenyl)-N-(7-oxy-2,3-dihydro-furo[2,3-b]pyridin-3-yl)-acetamide]	123 nM
O=C(Cc1cccc(C(F)(F)F)c1Cl)NC1COc2cncc(C3CC3)c21 (racemic) [Example 132, rac-2-(2-Chloro-3-trifluoromethyl-phenyl)-N-(4-cyclopropyl-2,3-dihydro-furo[2,3-c]pyridin-3-yl)-acetamide]	506 nM
COc1cc(C)nc2c1C(NC(=O)Cc1cccc(C(F)(F)F)c1Cl)CO2 (racemic) [Example 135, rac-2-(2-Chloro-3-trifluoromethyl-phenyl)-N-(4-methoxy-6-methyl-2,3-dihydro-furo[2,3-b]pyridin-3-yl)-acetamide]	> 4780 nM
Cc1ccnc2c1C(NC(=O)Cc1cccc(C(F)(F)F)c1Cl)CO2 (racemic) [Example 137, rac-2-(2-Chloro-3-trifluoromethyl-phenyl)-N-(4-methyl-2,3-dihydro-furo[2,3-b]pyridin-3-yl)-acetamide]	37 nM
Cc1cc(Cl)cc(Cl)c1CC(=O)NC1COc2nccc(C)c21 (racemic) [Example 138, rac-2-(2,4-Dichloro-6-methyl-phenyl)-N-(4-methyl-2,3-dihydro-furo[2,3-b]pyridin-3-yl)-acetamide]	99 nM
COc1ccnc2c1C(NC(=O)Cc1cccc(C(F)(F)F)c1Cl)CO2 (racemic) [Example 139, rac-2-(2-Chloro-3-trifluoromethyl-phenyl)-N-(4-methoxy-2,3-dihydro-furo[2,3-b]pyridin-3-yl)-acetamide]	272 nM
O=C(COc1ccc(Cl)cc1Cl)NC1COc2ncccc21 (racemic) [Example 140, rac-2-(2,4-Dichloro-phenoxy)-N-(2,3-dihydro-furo[2,3-b]pyridin-3-yl)-acetamide]	> 8410 nM

The remaining lines, values ahead:

IC50	SMILES
81 nM	O=C(Cc1cccc(C(F)(F)F)c1Cl)NC1COc2cnc(Cl)cc21 (racemic) [Example 115, rac-N-(5-Chloro-2,3-dihydro-furo[2,3-c]pyridin-3-yl)-2-(2-chloro-3-trifluoromethyl-phenyl)-acetamide]
350 nM	O=C(Cc1ccc(Cl)cc1Cl)NC1COc2cnc(Cl)cc21 (racemic) [Example 116, rac-N-(5-Chloro-2,3-dihydro-furo[2,3-c]pyridin-3-yl)-2-(2,4-dichloro-phenyl)-acetamide]
14 nM	Cc1cc(Cl)cc(Cl)c1CC(=O)NC1COc2cncc(C)c21 (racemic) [Example 131, rac-2-(2,4-Dichloro-6-methyl-phenyl)-N-(4-methyl-2,3-dihydro-furo[2,3-c]pyridin-3-yl)-acetamide]
43 nM	Cc1ccc2c(n1)OCC2NC(=O)Cc1c(C)cc(Cl)cc1Cl (racemic) [Example 133, rac-2-(2,4-Dichloro-6-methyl-phenyl)-N-(6-methyl-2,3-dihydro-furo[2,3-b]pyridin-3-yl)-acetamide]
21 nM	Cc1ccc2c(n1)OCC2NC(=O)Cc1cccc(C(F)(F)F)c1Cl (racemic) [Example 134, rac-2-(2-Chloro-3-trifluoromethyl-phenyl)-N-(6-methyl-2,3-dihydro-furo[2,3-b]pyridin-3-yl)-acetamide]
> 10000 nM	CCOc1cc(C)nc2c1C(NC(=O)Cc1cccc(C(F)(F)F)c1Cl)CO2 (racemic) [Example 136, rac-2-(2-Chloro-3-trifluoromethyl-phenyl)-N-(4-ethoxy-6-methyl-2,3-dihydro-furo[2,3-b]pyridin-3-yl)-acetamide]
